Experimental data: patent US11566029B2, “Pyrazolo[1,5-a]pyrimidine-5,7-diamine compounds as CDK inhibitors and their therapeutic use” (CANCER RESEARCH TECHNOLOGY LIMITED, priority 2014, dated 2023)
Structures can show the parent of a compound that is named as a salt.

Tests used:
HCT116 cells = experiment: Cell growth inhibition assay (sulforhodamine B), HCT116; format: cell-based; settings: Homo sapiens, HCT-116; 72 hours, SRB assay; read-out: Growth Inhibition, GI50 HCT116
Description: (§1) All cells were purchased from the American Type Culture Collection (ATCC) and MCF7 cells were routinely cultured in Dulbecco's Modified Eagle's Medium (DMEM) supplemented with 10% fetal calf serum (FCS) (First Link) and HCT116 cells were routinely cultured in Roswell Park Memorial Instititute Medium (RPMI) supplemented with 10% FCS. Cell growth was assessed using a known sulforhodamine B assay (see, e.g., Skehan et al., 1990).
(§2) MCF-7 cells purchased from ATCC (USA) were routinely passaged in DMEM, supplemented with 10% FCS and HCT116 cells purchased from ATCC (USA) were routinely passaged in RPMI supplemented with 10% FCS and kept in a 37° C. incubator with 5% CO2. The growth assay for both cell lines was performed in the appropriate media using the exact same protocol as described here. For the growth assay, 5000 cells were seeded into each well of 96-well plates in DMEM containing 10% FCS. Test compounds prepared in DMSO were added to the medium at concentrations ranging from 0.00038-100 μM. The cells were incubated for a further 72 hours, at which time they were fixed by the addition of 100 μL/well of ice-cold 40% trichloroacetic acid (TCA). The plates were left for 1 hour at 4° C., washed in water and 100 μL of 0.4% (w/v) sulforhodamine (SRB; Sigma-Aldrich, UK) prepared in 1% acetic acid was added. Plates were washed in 1% acetic acid to remove excess SRB reagent, air dried, and bound dye was solubilized by the addition of 100 μL of 10 mM tris base. The plates were read at 492 nm using a plate reader.

MCF7 cells = experiment: Cell growth inhibition assay (sulforhodamine B), MCF7; format: cell-based; settings: Homo sapiens, 72 hours, SRB assay, read-out: Growth Inhibition, GI50 MCF7
Description: as §1, §2

CDK7/CycH/MAT1 = biological target: T1, CDK7/CycH/MAT1 (Homo sapiens, UniProt P50613); experiment: In vitro kinase assay (PKLight luciferase ATP readout), CDK7; format: biochemical; settings: for IC50: ATP at Km, read-out: In vitro Kinase Inhibition CDK7 IC50; for Selectivity CDK1/CDK7: ratio of CDK1 IC50 to CDK7 IC50; for Selectivity CDK2/CDK7: ratio of CDK2 IC50 to CDK7 IC50
T1 construct: purchased ProQinase GmbH
Description: (§3) Purified recombinant CDK1/cycA1, CDK2/cycA1, CDK4/cycD1, CDK5/p35NCK, CDK6/cycD1, CDK7/CycH/MAT1, and CDK9/CycT1 were purchased from ProQinase GmbH. Kinase assays were performed according to manufacturer's protocols. Rb-CTF (ProQinase GmbH) (cat number: 0040-0000-6) was used as the kinase substrate for CDK1, CDK2, CDK4, and CDK6 kinases. […] A luciferase assay (PKLight assay; Cambrex) was used to determine ATP remaining at the end of the kinase reaction, which provides a measure of kinase activity, according to the manufacturer's protocols.
(§4) Kinase assays were carried out by incubation of increasing amounts of test compound with purified recombinant CDK-Cyclin complex, followed by measurement of free ATP remaining in the reaction using the luciferase assay kit (PKLight, Cambrex) which therefore provided a measure of inhibition for the specific CDK.
(§5) 5 μL of 1× kinase buffer (Cell Signalling Technologies) was mixed with 200 ng CDK1, 200 ng CDK2, 50 ng CDK4, 100 ng CDK5, or 200 ng CDK6 with 5 μg Rb-CTF and 300 ng CDK7 or 200 ng CDK9 with 500 μM RNA Poll II CTD peptide. […] The mixture was incubated at 30° C. for 30 minutes. The reaction is stopped with 20 μL of Stop Solution (provided in the PKLight kit) for 10 minutes at room temperature. Then 40 μL of the luciferase mix was added to the reaction mixture which was incubated for a further 10 minutes at room temperature and measured using the Tecan Infinite 2000 plate reader. GraphPad Prism Software was used to generate standard curve and determine the IC50's for each CDK.

CDK1/cycA1 = biological target: T2, CDK1/cycA1 (Homo sapiens, UniProt P06493); experiment: In vitro kinase assay (PKLight luciferase ATP readout), CDK1; format: biochemical; settings: ATP at Km; read-out: In vitro Kinase Inhibition CDK1 IC50
T2 construct: purchased ProQinase GmbH
Description: as §3, §4, §5

CDK2/cycA1 = biological target: T3, CDK2/cycA1 (Homo sapiens, UniProt P24941); experiment: In vitro kinase assay (PKLight luciferase ATP readout), CDK2; format: biochemical; settings: ATP at Km; read-out: In vitro Kinase Inhibition CDK2 IC50
T3 construct: purchased ProQinase GmbH
Description: as §3, §4, §5

T1 sequence (P50613 whole entry): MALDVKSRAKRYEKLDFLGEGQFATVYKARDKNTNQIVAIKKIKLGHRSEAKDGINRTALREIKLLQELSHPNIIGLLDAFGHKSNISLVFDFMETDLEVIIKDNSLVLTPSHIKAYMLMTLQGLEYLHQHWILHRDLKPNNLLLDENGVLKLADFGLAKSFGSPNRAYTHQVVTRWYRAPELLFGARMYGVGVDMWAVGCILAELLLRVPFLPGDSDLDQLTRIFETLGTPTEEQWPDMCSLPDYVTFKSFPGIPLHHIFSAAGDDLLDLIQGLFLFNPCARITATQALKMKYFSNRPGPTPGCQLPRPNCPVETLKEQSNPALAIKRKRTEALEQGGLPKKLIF
T1 sequence (P51946 whole entry partner): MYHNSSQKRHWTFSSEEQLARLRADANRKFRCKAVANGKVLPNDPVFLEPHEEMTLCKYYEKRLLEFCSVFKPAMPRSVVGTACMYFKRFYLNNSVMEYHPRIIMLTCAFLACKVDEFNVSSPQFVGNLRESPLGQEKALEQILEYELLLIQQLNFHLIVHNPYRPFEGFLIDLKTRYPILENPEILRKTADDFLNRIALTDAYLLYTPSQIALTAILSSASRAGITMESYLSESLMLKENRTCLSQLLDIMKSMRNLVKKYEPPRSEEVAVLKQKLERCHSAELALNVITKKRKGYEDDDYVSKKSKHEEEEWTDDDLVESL
T1 sequence (P51948 whole entry partner): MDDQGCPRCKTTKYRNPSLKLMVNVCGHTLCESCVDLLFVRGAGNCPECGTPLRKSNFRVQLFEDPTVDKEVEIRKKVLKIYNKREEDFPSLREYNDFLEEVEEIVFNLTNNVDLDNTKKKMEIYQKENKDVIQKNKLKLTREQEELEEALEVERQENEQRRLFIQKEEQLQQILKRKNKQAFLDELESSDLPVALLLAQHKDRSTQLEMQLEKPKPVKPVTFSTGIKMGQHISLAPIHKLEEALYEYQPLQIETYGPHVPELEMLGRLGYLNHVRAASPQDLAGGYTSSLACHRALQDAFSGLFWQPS

| SMILES | GI50 (HCT116 cells) | GI50 (MCF7 cells) | IC50 (CDK7/CycH/MAT1) | Selectivity CDK1/CDK7 (CDK7/CycH/MAT1) | Selectivity CDK2/CDK7 (CDK7/CycH/MAT1) | IC50 (CDK1/cycA1) | IC50 (CDK2/cycA1) |
| --- | --- | --- | --- | --- | --- | --- | --- |
| CC(C)c1cnn2c(NCc3ccccc3)cc(NC[C@]3(O)CCNC[C@H]3O)nc12 (racemic) [PPDA-002, (3R,4R)-4-((7-(Benzylamino)-3-iso-propyl-pyrazolo[1,5-a]pyrimidin-5-ylamino)methyl)piperidine-3,4-diol hydrochloride] | 5100 nM | 1500 nM | 18 nM | 77 fold | 113 fold | 1380 nM | 2030 nM |
| CC(C)c1cnn2c(NCC3CCCCC3)cc(NC[C@]3(O)CCNC[C@H]3O)nc12 (racemic) [PPDA-014] | 53500 nM | 45600 nM | 975 nM | 8.9 fold | 0.5 fold | 8680 nM | 481 nM |
| CC(C)c1cnn2c(NCc3ccccc3)cc(NCC3(CO)CCNC3)nc12 (racemic) [PPDA-018, (3-((7-(Benzylamino)-3-iso-propylpyrazolo [1,5-a]pyrimidin-5ylamino)methyl)pyrrolidin-3-yl)methanol hydrochloride] | 900 nM | 100 nM | 14 nM | 2.9 fold | 0.1 fold | 41 nM | 1 nM |
| CC(C)c1cnn2c(NCC3CCCCC3)cc(NC[C@@]3(CO)CCNC3)nc12 (racemic) [PPDA-019] | 400 nM | 300 nM | 29 nM | 2.8 fold | 0.3 fold | 80 nM | 9 nM |
| CC(C)c1cnn2c(NCc3ccncc3)cc(NC[C@@]3(CO)CCNC3)nc12 (racemic) [PPDA-020] | 1500 nM | 600 nM | 44 nM | 10 fold | 0.5 fold | 441 nM | 22 nM |
| CC(C)c1cnn2c(NCc3ccccc3Cl)cc(NC[C@@]3(CO)CCNC3)nc12 (racemic) [PPDA-021] | 1200 nM | 200 nM | 81 nM | 2.2 fold | 0.3 fold | 177 nM | 22 nM |
| CC(C)c1cnn2c(NCc3ccccc3)cc(N[C@H]3CNCC3O)nc12 (stereo in doubt) [PPDA-015, (3S,4S)-4-(7-(Benzylamino)-3-iso-propyl-pyrazolo[1,5-a]pyrimidin-5-ylamino)-pyrrolidin-3-ol hydrochloride] | 12700 nM | 4100 nM | 27 nM | 146 fold | 48 fold | 3950 nM | 1290 nM |
| CC(C)c1cnn2c(NCc3ccncc3)cc(NC[C@H]3CCNC[C@@H]3O)nc12 [PPDA-003, (3R,4R)-4-((3-iso-Propyl-7-(pyridin-4-ylmethylamino)pyrazolo[1,5-a]pyrimidin-5-ylamino)methyl)piperidin-3-ol hydrochloride] |  |  | 47 nM | 41 fold | 2.5 fold | 1910 nM | 114 nM |
| CC(C)c1cnn2c(NCC3CCCCC3)cc(NC[C@H]3CCNC[C@@H]3O)nc12 [PPDA-004] | 2500 nM | 2700 nM | 940 nM | 1.9 fold | 1.4 fold | 1820 nM | 1290 nM |
| CC(C)c1cnn2c(Nc3ccc(S(=O)(=O)N(C)C)cc3)cc(NC[C@H]3CCNC[C@@H]3O)nc12 [PPDA-005] | 7200 nM | 4220 nM | 111 nM | 1.9 fold | 0.3 fold | 213 nM | 38 nM |
| CC(C)c1cnn2c(NC3CCN(S(=O)(=O)c4ccc(F)cc4)CC3)cc(NC[C@H]3CCNC[C@@H]3O)nc12 [PPDA-006] | 10000 nM | 8400 nM | 40 nM | 10 fold | 4.5 fold | 405 nM | 178 nM |
| CC(C)c1cnn2c(Nc3ccc(N4CCN(C)CC4)cc3)cc(NC[C@H]3CCNC[C@@H]3O)nc12 [PPDA-007, (3R,4R)-4-((3-iso-Propyl-7-(4-(4-methylpiperazin-1-yl)phenylamino)pyrazolo[1,5-a]pyrimidin-5-ylamino)methyl)piperidin-3-ol hydrochloride] | 4100 nM | 2100 nM | 461 nM | 2.5 fold | 1.1 fold | 1150 nM | 503 nM |
| CC(C)c1cnn2c(Nc3csc4ccccc34)cc(NC[C@H]3CCNC[C@@H]3O)nc12 [PPDA-008] | 5100 nM | 3100 nM | 120 nM | 25 fold | 0.4 fold | 2950 nM | 42 nM |
| CC(C)c1cnn2c(NC(=O)C3CCNCC3)cc(NC[C@H]3CCNC[C@@H]3O)nc12 [PPDA-009, N-(5-((((3R,4R)-3-Hydroxypiperidin-4-yl)methyl)amino)-3-iso-propylpyrazolo[1,5-a]pyrimidin-7-yl)piperidine-4-carboxamide hydrochloride] | 86600 nM | 38900 nM | 462 nM | 1.2 fold | 1.0 fold | 559 nM | 459 nM |
| CC(C)c1cnn2c(NCc3ccccc3)cc(NC3CNCC[C@]3(O)CO)nc12 (stereo partly shown) [PPDA-025] | 23700 nM | 10100 nM |  | 3.7 fold | 1.4 fold |  |  |
| CC(C)c1cnn2c(NCc3ccccc3)cc(N[C@@H]3CNCC[C@]3(O)CO)nc12 [PPDA-025] |  |  | 77 nM |  |  | 285 nM | 106 nM |
| CO[C@H]1CN[C@H](CNc2cc(NCc3ccccc3)n3ncc(C(C)C)c3n2)C1 [PPDA-029] | > 100000 nM | 17600 nM | 1010 nM |  | 2.8 fold |  | 2840 nM |
| CC(C)c1cnn2c(NCc3ccccc3)cc(NC[C@@H]3C[C@@H](O)CN3)nc12 [PPDA-030] | > 100000 nM | 20200 nM | 59 nM |  | 17 fold |  | 999 nM |
| CC(C)c1cnn2c(NCc3ccccc3)cc(NC[C@H]3NCC[C@@H]3O)nc12 [PPDA-031] | 20400 nM | 5600 nM | 473 nM |  | 0.8 fold |  | 393 nM |
| CC(C)c1cnn2c(NCc3ccccc3)cc(NC[C@H]3NC[C@H](O)[C@@H]3O)nc12 [PPDA-032] |  |  | 305 nM |  | 4.9 fold |  | 1500 nM |
| CC(C)c1cnn2c(NCc3ccccc3)cc(NCC3CCNCC3)nc12 [XX-01, reference compound] | 18700 nM | 12200 nM | 310 nM |  |  |  |  |
| CC(C)c1cnn2c(NCc3ccccc3)cc(NC[C@H]3CCCC[C@@H]3O)nc12 [XX-02, reference compound] | > 100000 nM | 47000 nM | 687 nM |  |  |  |  |
